# Measurements published in ChEMBL document CHEMBL1148569, “Aza-analogues of the marine pyrroloquinoline alkaloids wakayin and tsitsikammamines: synthesis and topoisomerase inhibition” (Bioorg Med Chem Lett, 2006).
# Calls of active or inactive are those of the source. The rule behind the calls is not given here.
# Key:
# [1] = biological target: DNA topoisomerase II (Homo sapiens) (UniProt P11388+Q02880); assay: Inhibition of Topoisomerase 2 mediated DNA cleavage activity in a cell free assay at 100 uM; format: protein assay
# [2] = biological target: T1, DNA topoisomerase 1 (Homo sapiens) (UniProt P11387); assay: Inhibition of Topoisomerase 1 mediated DNA cleavage activity in a cell free assay at 100 uM
# T1 sequence (whole entry): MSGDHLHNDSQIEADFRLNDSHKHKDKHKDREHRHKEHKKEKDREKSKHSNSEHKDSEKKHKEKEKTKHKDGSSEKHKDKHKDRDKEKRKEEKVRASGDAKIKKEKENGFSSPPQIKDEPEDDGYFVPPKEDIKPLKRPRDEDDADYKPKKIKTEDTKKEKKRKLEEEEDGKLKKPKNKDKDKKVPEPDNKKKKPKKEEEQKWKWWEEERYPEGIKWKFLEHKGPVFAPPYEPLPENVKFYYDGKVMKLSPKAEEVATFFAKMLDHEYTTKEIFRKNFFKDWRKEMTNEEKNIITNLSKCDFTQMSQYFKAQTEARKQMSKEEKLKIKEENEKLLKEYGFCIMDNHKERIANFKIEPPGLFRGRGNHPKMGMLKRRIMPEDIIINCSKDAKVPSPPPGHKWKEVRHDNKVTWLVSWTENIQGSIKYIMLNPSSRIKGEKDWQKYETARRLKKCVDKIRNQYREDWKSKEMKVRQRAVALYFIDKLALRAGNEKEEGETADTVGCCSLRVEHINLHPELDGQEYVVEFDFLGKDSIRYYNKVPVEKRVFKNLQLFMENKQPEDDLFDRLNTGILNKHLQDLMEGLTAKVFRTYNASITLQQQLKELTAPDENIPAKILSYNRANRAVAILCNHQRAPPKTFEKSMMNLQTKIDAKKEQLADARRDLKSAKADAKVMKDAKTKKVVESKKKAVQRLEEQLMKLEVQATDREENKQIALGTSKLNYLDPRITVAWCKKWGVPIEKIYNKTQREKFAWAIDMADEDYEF
Activity [1],Activity [2],Structure (SMILES)
inactive,Active,O=C1c2[nH]ccc2C2=NCCc3n[nH]c1c32
inactive,inactive,O=C1c2cc[nH]c2C2=NCCc3n[nH]c1c32
